Assay [1] deals with T1, TRF1TRFH (Homo sapiens, UniProt P54274).
T1 construct: encoding residues 47–268, UniProt identifier P54274-1; His6-MBP (TEV-cleavable) (N, cleaved yes); made in house; host or cells: E. coli BL21-CodonPlus(DE3)-RIL
T1 sequence (P54274 47-268): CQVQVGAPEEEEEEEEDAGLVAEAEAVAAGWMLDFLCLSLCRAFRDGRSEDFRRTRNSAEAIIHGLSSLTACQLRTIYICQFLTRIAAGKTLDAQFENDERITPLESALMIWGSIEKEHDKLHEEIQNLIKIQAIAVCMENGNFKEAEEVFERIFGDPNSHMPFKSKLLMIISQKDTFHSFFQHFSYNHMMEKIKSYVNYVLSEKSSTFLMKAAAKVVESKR
The experiment in a line: LO-NMR R2KD assay. Type of assay: binding. The note with it: global KD shared across 1H NMR peaks, single experiment, 95% CI in parentheses; 2 µM TRF1TRFH. As for the experimental part: Recent work by Liu and colleagues introduced a novel LO-NMR method that can be used to quantitatively determine the dissociation constant (KD) of a ligand for a protein from measured R2 values of ligand nuclei at a range of ligand concentrations.
The R2KD assay was carried out as described by Liu et al.[40]. A Bruker SamplePro liquid handler was used to prepare 10 samples: 8 samples containing an increasing ligand concentration from 50 to 500 µM whilst maintaining a constant TRF1TRFH concentration (2 µM final); and two samples containing ligand only at 200 µM and 400 µM. All ten samples were prepared from stock solutions of ligand, DMSO, protein and buffer alone using the Bruker SamplePro liquid handler prior to transfer to 3-mm NMR tubes.
NMR data were collected at 298 K on a Bruker Avance Neo 600-MHz spectrometer using the Bruker Topspin 4.0 software. T2 relaxation experiments were performed using the standard Bruker CPMG pulse program with Excitation Sculpting incorporated to suppress water signal. The spin-echo period (delay-180°-delay) was set to 1 ms (d20 = 500 µs), and the relaxation delay (d1) was set to 10 s. The sudo-2D experiment contained nine slices with the spin echo period repeated at the following times: 4, 20, 100, 200, 300, 500, 700, 1000, and 2000 ms. T2 relaxation data were processed using the MestReNova 14.1 data analysis module to obtain integrals of individual[1]H-NMR signals, which were used to calculate R2 with the equation I = I0e^(−tR2). GraphPad Prism 9.0.0 was used to fit R2 values of individual compound peaks to obtain an overall (shared) KD value from all peaks of the compound.

The target of assay [2] is T2, TRF1TRFH:TIN2-FAM interaction (Homo sapiens, UniProt P54274).
T2 construct: encoding residues 47–268, UniProt identifier P54274-1; His6-MBP (TEV-cleavable) (N, cleaved yes); made in house; host or cells: E. coli BL21-CodonPlus(DE3)-RIL (TRF1TRFH); probe peptide from Pepceuticals
T2 sequence (P54274 47-268): T1 sequence (P54274 47-268)
The experiment in a line: Fluorescence polarisation (FP) competition assay, TIN2-FAM displacement. It is filed as binding. The following applies: 0.6 µM TRF1TRFH, 25 nM TIN2-FAM; mean of three independent experiments, 95% CI in parentheses. As for the experimental part: To complement the biophysical R2KD assay, we developed a fluorescence polarisation (FP) competition assay based on a TIN2TBM peptide labelled with an N-terminal 5(6)-carboxyfluorescein (6-FAM) fluorophore. […] The NMR hit analogues were then titrated against constant concentrations of TRF1TRFH and TIN2-FAM (0.6 µM and 25 nM, respectively).
A TIN2TBM peptide was obtained from Pepceuticals with a 5(6)-carboxyfluorescein (FAM) fluorophore added to the N-terminus for fluorescence studies. To determine the assay window for the FP assay, the TIN2-FAM probe was prepared as a 16-µM stock in aqueous buffer and titrated from 0 to 400 nM against either a constant concentration of TRF1TRFH (0.5 µM in FP buffer) or FP buffer alone (25 mM HEPES-NaOH pH 7.5, 100 mM NaCl, 1 mM TCEP, 0.05% w/v CHAPS). Samples were prepared to a final volume of 10 µL in Packard Proxiplate 384 F plus plates; plates were incubated in darkness at room temperature for 1 h prior to measuring fluorescence intensities and calculating FP values, using a BMG Labtech PHERAstar FSX plate reader with an FP 485 520 520 optic module. A settling time of 0.3 s was used, and the number of flashes was set to 200 for FP measurements. For each plate, a target mP of 35 was set and the gain adjusted on the TIN2-FAM probe control well minus protein.
For the FP competition assay, the unlabelled compounds (from 50-mM DMSO stocks) were first dispensed in duplicate into wells of a Proxiplate 384 F Plus plate using an Echo 550 acoustic liquid handler to give a 13-point concentration range from 0.2 to 500 µM. Wells were then backfilled to 250 nL with DMSO before the addition of 5 µL of 2x TRF1TRFH (0.6 µM final concentration) and 4.75 µL 2x TIN2-FAM (25 nM final concentration). Plates were spun and sealed prior to incubation for 1 h in darkness. FP measurements were then carried out as described above.

Regarding `COc1cc(COc2ccc(S(=O)(=O)[O-])c3ccccc23)cc(OC)c1.[Na+]` [Compound 40], in assay [1], the dissociation constant Kd stood at 29 µM. The IC50 in assay [2] came to 67 µM.

Source of the values: paper PMC12635197, “Discovery of first-in-class inhibitors of the TRF1:TIN2 protein:protein interaction by fragment screening” (Scientific Reports, 2025).
